17 molecules from patent US5374722A, “Bridged benzazepines” (Schering Corporation, priority 1993, dated 1994) can be followed below.

One assay concerns the target T1, D-2 receptor (Rattus norvegicus, UniProt P61169).
T1 construct: Stdatal tissue is excised, pooled, and homogenized; from tissue; host or cells: striatum of male Sprague-Dawley rats (washed homogenate pellet)
Kind of assay: Competitive inhibition assay: displacement of 3H-spiperone (D-2) from rat striatal tissue. The assay is classed as binding, rat (male Sprague-Dawley). (In a radioligand displacement assay an active substance lowers the binding of a labelled ligand.)

In assay [1] the test system is conditioned avoidance response (CAR) in rats. Kind of assay: animal or person. Format: in vivo. To be noted: Rattus norvegicus.
In another assay the target is T2, D-1 receptor (Rattus norvegicus, UniProt P18901).
T2 construct: Stdatal tissue is excised, pooled, and homogenized; from tissue; host or cells: striatum of male Sprague-Dawley rats (washed homogenate pellet)
T2 sequence (P18901 whole entry): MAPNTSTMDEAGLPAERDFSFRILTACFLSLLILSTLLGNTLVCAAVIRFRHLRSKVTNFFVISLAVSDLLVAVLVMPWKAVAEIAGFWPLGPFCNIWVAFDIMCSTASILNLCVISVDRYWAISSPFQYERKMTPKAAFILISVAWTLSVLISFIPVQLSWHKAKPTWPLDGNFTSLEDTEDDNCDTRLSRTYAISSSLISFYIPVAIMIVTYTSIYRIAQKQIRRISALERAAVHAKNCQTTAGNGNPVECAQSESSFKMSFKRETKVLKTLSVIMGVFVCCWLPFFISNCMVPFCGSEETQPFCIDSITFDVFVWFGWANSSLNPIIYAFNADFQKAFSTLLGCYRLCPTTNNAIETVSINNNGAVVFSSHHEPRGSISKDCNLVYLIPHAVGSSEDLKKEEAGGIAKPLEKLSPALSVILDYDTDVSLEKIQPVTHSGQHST
Kind of assay: Competitive inhibition assay: displacement of tritiated Compound B* (D-1) from rat striatal tissue. Format: binding, rat (male Sprague-Dawley).

Setting [2] is: 3H-spiperone 0.2 nM, rat striatal tissue, pH 7.4, 37° C., 15 min.
The mark [3] stands for this setting: po, 1 h, read-out: Rat CAR MED Oral (minimal effective dose).
Where [4] appears, read: tritiated compound B 0.3 nM, rat striatal tissue, pH 7.4, 37° C., 15 min.
Where [5] appears, read: sc, 0.5 h, read-out: Rat CAR MED sc (minimal effective dose).

Where a name gives a salt, the structure may show the parent alone. Read-outs that look alike come from different tables or passages of the source.

T1 sequence (P61169 whole entry): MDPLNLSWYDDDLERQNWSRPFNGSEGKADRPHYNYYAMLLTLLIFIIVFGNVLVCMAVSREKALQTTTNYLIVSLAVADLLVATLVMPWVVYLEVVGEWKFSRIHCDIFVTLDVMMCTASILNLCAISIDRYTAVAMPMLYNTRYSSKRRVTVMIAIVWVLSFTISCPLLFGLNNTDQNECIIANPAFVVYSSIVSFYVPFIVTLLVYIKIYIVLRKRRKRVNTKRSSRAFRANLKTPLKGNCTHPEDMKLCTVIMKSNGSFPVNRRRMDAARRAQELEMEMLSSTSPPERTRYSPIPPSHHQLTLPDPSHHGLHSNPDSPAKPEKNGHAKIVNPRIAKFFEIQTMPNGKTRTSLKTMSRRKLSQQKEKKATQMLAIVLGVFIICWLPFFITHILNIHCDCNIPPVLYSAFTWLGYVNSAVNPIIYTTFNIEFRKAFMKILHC

A word on the Ki: it is a measure of affinity in units of concentration, obtained from inhibition or displacement. One may read the minimal effective dose as the smallest amount tested that counted as effective. Take `Cc1cc2c3c(c1O)CCCC3CN(C)CC2` (stereo not shown) [CH3 H 1 H H H H H, 2,6-Dimethyl-1,2,3,4,8,9,1 0,10a-Octahydro-Naphth[1,8. cd]azepine-7-ol, hydrochloride]: the results for the inhibition constant Ki on D-2 receptor (setting [2]) and on D-1 receptor were 1300 nM and 37 nM, respectively. In assay [1] (setting [3]), the minimal effective dose was at most 30 mg/kg.

For `CN1CCc2ccc(O)c3c2C(CCC3)C1` (stereo not shown) [CH H 1 H H H H H, 2-Methyl-1,2,3,4,8,9, 10,10a-OctahydroNaphth[1,8-cd]azepine-7-ol], the Ki is 3350 nM at D-2 receptor (setting [2]) and 350 nM at D-1 receptor (setting [4]).

`CN1CCc2c(Cl)c(Cl)c(O)c3c2C(CCC3)C1` (stereo not shown) [Cl Cl 1 H H H H H, 5,6-Dichloro-2-Methyl-1,2,3,4,8,9, 10,10a-octahydronapth[1,8-cd]azepin-7-ol]: the values for the Ki on D-2 receptor (setting [2]) and on D-1 receptor were 230 nM and 1.1 nM, respectively. Besides, the minimal effective dose in assay [1] (setting [3]) came out at 10 mg/kg.

Consider `CN1CCc2cc(Cl)c(O)c3c2C(C1)CC3(C)C` (stereo not shown) [Cl H 0 H CH3 CH3 H H], for which the Ki came to 147 nM on D-2 receptor (setting [2]) and 65 nM on D-1 receptor. The minimal effective dose in assay [1] (setting [5]) is 3 mg/kg.

Regarding `COc1cc(NC(=O)Oc2c(Cl)cc3c4c2CCCC4CN(C)CC3)cc(OC)c1` (stereo not shown) [Cl H 1 3,5-(MeO)2PhNHCO H H H H], the inhibition constant (Ki) on D-2 receptor stood at 405 nM; on D-1 receptor, 6.6 nM. Besides, the minimal effective dose in assay [1] (setting [3]) was determined as 10 mg/kg.

In the case of `CC(C)c1ccc(NC(=O)Oc2c(Cl)cc3c4c2CCCC4CN(C)CC3)cc1` (stereo not shown) [Cl H 1 4-i-PrPhNHCO H H H H, 6-Chloro-7-[(4-Isoporpylphenylamino) Carbonyloxy]-2-Methyl-1,2,3,4,8,9,10,10a-Octahydro-Naphth]1,8-cd]azepine, hydrochloride], the inhibition constant Ki came to 680 nM on D-2 receptor and 51 nM on D-1 receptor. Also, the minimal effective dose in assay [1] (setting [3]) was at most 30 mg/kg.

`CN1CCc2cc(Cl)c(O)c3c2C(CCC3c2ccccc2)C1` (stereo not shown) [Cl H 1 H C6H5 H H H]: the figures for the inhibitory constant (Ki) at D-2 receptor (setting [2]) and on D-1 receptor (setting [4]) were 42800 nM and 2080 nM, respectively. The figures for the minimal effective dose in assay [1] (setting [3]) and in assay [1] (setting [5]) were above 30 mg/kg and above 10 mg/kg, respectively.

Consider `CN1CCc2cc(Cl)c(O)c3c2C(CCC3(C)C)C1` (stereo not shown) [Cl H 1 H CH3 CH3 H H, 6-Chloro-2,8.8-Trimethyl-1,2,3,4,8,9,10,10a-Octahydro-Naphth [1,8-cd]azepin-7-ol], for which the Ki at D-2 receptor (setting [2]) was determined as 218 nM; at D-1 receptor (setting [4]), 256 nM. The results for the minimal effective dose in assay [1] (setting [3]) and in assay [1] (setting [5]) were below 30 mg/kg and above 10 mg/kg, respectively.

On to `CC1CCC2CN(C)CCc3cc(Cl)c(O)c1c32` (stereo not shown) [Cl H 1 H CH3 H H H, 6-chloro-2,8-dimethyl-1.2.3.4.8.9.10.10a-octahydro-naphth [1.8-c.d]azepin-7-ol], for which the inhibition constant Ki on D-2 receptor (setting [2]) came to 248 nM; at D-1 receptor it was 42 nM. Also, the minimal effective dose in assay [1] (setting [3]) is 3 mg/kg; in assay [1] (setting [5]) it was 0.1 mg/kg.

`CC1=Cc2c(O)c(Cl)cc3c2C(C1)CN(C)CC3` (stereo not shown) [Cl H 1 H H -- CH3 --]: the results for the Ki on D-2 receptor (setting [2]) and at D-1 receptor were 264 nM and 32 nM, respectively. Besides, the minimal effective dose in assay [1] (setting [3]) was above 30 mg/kg.

Take `CC1CCC2CN(C)CCc3cc(Cl)c(O)c1c32` (stereo not shown) [Cl H 1 H H CH3 H H, 6-chloro-2,8-dimethyl-1.2.3.4.8.9.10.10a-octahydro-naphth [1.8-c.d]azepin-7-ol]: the values for the Ki on D-2 receptor (setting [2]) and at D-1 receptor were 389 nM and 51 nM, respectively.

In the case of `CC1Cc2c(O)c(Cl)cc3c2C(C1)CN(C)CC3` (stereo not shown) [Cl H 1 H H H CH3 H], the Ki amounted to 250 nM on D-2 receptor (setting [2]) and 4.5 nM on D-1 receptor.

Take `CN1CCc2cc(Cl)c(O)c3c2C(CCC3)C1` (stereo not shown) [Cl H 1 H H H H H, 6-Chloro-2-Methyl-1,2,3,4,8,9, 10, 10a-octahydro-naphth [1,8-cd]azepin-7-ol]: the results for the Ki on D-2 receptor (setting [2]) and at D-1 receptor were 500 nM and 6.2 nM, respectively. Besides, the minimal effective dose in assay [1] (setting [3]) is above 30 mg/kg; in assay [1] (setting [5]) it was 0.3 mg/kg.

As for `CN1CCc2cc(Cl)c(O)c3c2C(CCC3O)C1` (stereo not shown) [Cl H 1 H HO H H H], the inhibition constant (Ki) on D-2 receptor (setting [2]) worked out at 6590 nM; at D-1 receptor (setting [4]) it was 110 nM.

`CN1CCc2cc(Cl)c(OC(=O)N(C)C)c3c2C(CCC3)C1` (stereo not shown) [Cl H 1 Me2NCO H H H H]: the Ki is 8010 nM on D-2 receptor and 1010 nM at D-1 receptor. Besides, the minimal effective dose in assay [1] (setting [3]) amounted to 10 mg/kg; in assay [1] (setting [5]), 3 mg/kg.

Consider `COc1cc(NC(=O)Oc2ccc3c4c2C(C)CCC4CN(C)CC3)cc(OC)c1` (stereo not shown) [H H 1 3,5-(MeO)2PhNHCO CH3 H H H], for which the figures for the Ki at D-2 receptor and at D-1 receptor were 337 nM and 35 nM, respectively. Also, the minimal effective dose in assay [1] (setting [3]) is above 30 mg/kg.

In the case of `CC(C)c1ccc(NC(=O)Oc2ccc3c4c2C(C)CCC4CN(C)CC3)cc1` (stereo not shown) [H H 1 4-iPrPhNHCO CH3 H H H], the inhibition constant Ki is 420 nM on D-2 receptor and 134 nM at D-1 receptor. For the same molecule, in assay [1] (setting [3]), the minimal effective dose was above 30 mg/kg.
